What is called Ki is the equilibrium dissociation constant of an inhibitor or competing ligand from its target. Higher therefore signals a looser hold on the target.

We go through two compounds from US5521199A, “Piperidinyl compounds as neurokinin receptor antagonists” (Zeneca Limited, priority 1993, dated 1996).

One assay concerns the target T1, guinea pig trachea (Cavia porcellus, UniProt Q64077).
T1 construct: The trachea are removed, trimmed of excess tissue and divided into two segments; from tissue; host or cells: trachea of male guinea pigs, rings in tissue baths
T1 sequence (Q64077 1-402): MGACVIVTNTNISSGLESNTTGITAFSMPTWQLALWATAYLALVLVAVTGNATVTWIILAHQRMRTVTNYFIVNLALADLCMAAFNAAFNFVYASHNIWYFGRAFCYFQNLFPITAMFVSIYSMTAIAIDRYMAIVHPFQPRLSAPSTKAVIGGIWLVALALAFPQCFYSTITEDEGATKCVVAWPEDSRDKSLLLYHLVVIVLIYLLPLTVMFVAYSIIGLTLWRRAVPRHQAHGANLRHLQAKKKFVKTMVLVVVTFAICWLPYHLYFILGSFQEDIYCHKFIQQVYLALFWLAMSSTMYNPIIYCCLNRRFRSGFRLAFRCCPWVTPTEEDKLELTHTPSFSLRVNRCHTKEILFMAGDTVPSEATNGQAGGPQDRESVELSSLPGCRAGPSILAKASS
The assay is described as follows: Guinea Pig Trachea Assay (Test B). It is filed as cell-based. The conditions noted are these: antagonism of NKA or [β-ala8]-NKA(4-10) contraction; -log molar KB; read-out: pKB (Test B) (converted). How it is done: Guinea Pig Trachea Assay (Test B)
In the test described below either NKA or [β-ala^8 ]-NKA(4-10) is used as an agonist. The chosen agonist is referred to as AG throughout the description.
Male guinea pigs are killed by a sharp blow to the back of the head. The trachea are removed, trimmed of excess tissue and divided into two segments. […] Initial tension placed on each tissue is 1 g, which is maintained throughout a 0.5 to 1.5 hour equilibration period before addition of other drugs. Contractile responses are measured on a Grass polygraph via Grass FT-03 force transducers.
Tissues are challenged repetitively with a single concentration of AG (10 nM) with intervening 30 min periods with washing to allow the tension to return to baseline levels. […] Percent inhibition is determined when a Compound produces a statistically significant (p<0.05) reduction of the contraction and is calculated using the second contractile response as 100%.
Potencies of selected Compounds are evaluated by calculating apparent dissociation constants (KB) for each concentration tested using the standard equation: […]
where dose ratio=antilog[(AG -log molar EC50 without Compound)--(AG -log molar EC50 with Compound)]. The KB values may be converted to the negative logarithms and expressed as -log molar KB (i.e. pKB). […] The EC50 values are converted to the negative logarithms and expressed as -log molar EC50. […]

For the next assay, the target named is T2, human NK2 receptor (Homo sapiens, UniProt P21452).
T2 sequence (P21452 1-398): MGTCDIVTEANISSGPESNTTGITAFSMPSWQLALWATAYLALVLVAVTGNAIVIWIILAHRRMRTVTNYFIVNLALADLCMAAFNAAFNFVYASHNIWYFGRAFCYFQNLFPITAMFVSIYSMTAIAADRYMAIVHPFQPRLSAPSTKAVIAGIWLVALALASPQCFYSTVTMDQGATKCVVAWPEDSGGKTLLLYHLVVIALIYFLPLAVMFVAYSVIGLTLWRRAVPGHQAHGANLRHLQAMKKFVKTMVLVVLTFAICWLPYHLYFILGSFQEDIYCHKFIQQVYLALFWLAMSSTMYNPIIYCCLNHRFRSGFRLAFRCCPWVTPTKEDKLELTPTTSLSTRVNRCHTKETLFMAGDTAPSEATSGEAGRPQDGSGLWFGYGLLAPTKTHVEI
The assay is described as follows: Neurokinin A (NKA) Receptor-binding Assay (Test A). The note with it: 3H-NKA, MELM, 60 min at 25° C., pH 7.4.

In another assay the test system is NK2 receptor. The assay is described as follows: Guinea Pig Labored Abdominal Breathing (Dyspnea) Assay (Test C). It is filed as in vivo. The note with it: oral, two hours prior to challenge with the agonist [β-ala8]-NKA(4-10) aerosol; all five animals fully protected. The method, then:
Guinea Pig Labored Abdominal Breathing (Dyspnea) Assay (Test C)
Using the clear plastic chamber described previously by Snyder et al. to secure guinea pigs for a head-only aerosol exposure to bronchoconstrictor agonists, agonist is administered by aerosol to six conscious guinea pigs simultaneously during each maneuver. The tachykinin NK2-selective agonist, [β-ala^8 ]-NKA(4-10), 3×10^-5 M, is aerosolized from a Devilbiss Model 25 ultrasonic nebulizer into an air stream entering the chamber at a rate of 2 L/minute.
Guinea pigs (275-400 g) are fasted for approximately 16 hours prior to experimentation. Compounds to be evaluated for blockade of effects of [β-ala^8 ]-NKA(4-10) or their vehicle (10% PEG400 in saline) are administered p.o. or i.v. at various times before aerosol agonist challenge. All animals are pretreated with atropine (10 mg/kg, j.p., 45 minutes pretreatment) indomethacin (10 mg/kg, i.p., 30 minutes pretreatment), propranolol (5 mg/kg, i.p., 30 minutes pretreatment), and thiorphan (1 mg/ml aerosol for 5 minutes, 15 minutes pretreatment)
Aerosol challenge with the agonist produces an initial increase in respiratory rate followed by a decrease with early signs of minor involvement of the abdominal muscles. […] Time, in seconds, from the onset of aerosol challenge to this end point is determined for each animal by using a stopwatch. […]

Structures can show the parent of a compound that is named as a salt.

Protocol for human NK2 receptor: Membrane preparations (MELM) prepared from the MEL cells containing high-affinity NK2 receptors were prepared according to a published protocol (D. Aharony, et al., Neuropeptides (1992) 23, 121-130) with the following minor modifications: (1) Iodoacetamide (1 mM) was included in the homogenization buffer; (2) Homogenization was as published but for a shorter period of 10 seconds once and at a slower speed (setting 10); and (3) The equilibration step with KCl/EDTA was not performed.

Consider `CC(=O)OCCC1CCN(CCC(CN(C)C(=O)c2ccccc2)c2ccc(Cl)c(Cl)c2)CC1` (centres unmarked) [Example 10, N-[2-(3,4-Dichlorophenyl)-4-[4-(2-acetoxyethyl)piperidino]butyl]-N-methylbenzamide hydrochloride], for which, at guinea pig trachea, the Kb was 15.8 nM. The compound further came in with an inhibition constant Ki at human NK2 receptor of 40 nM.
Turning to `CCC(O)(CC)C1CCN(CC[C@H](CN(C)C(=O)c2ccccc2)c2ccc(Cl)c(Cl)c2)CC1.Cl` [Example 16, (S)-N-[2-(3,4-Dichlorophenyl)-4-[4-(1-ethyl-1-hydroxypropyl)piperidino]butyl]-N-methylbenzamide hydrochloride], the Kb on guinea pig trachea was 3.98 nM. Besides, the “protection (Test C)” value in the assay with NK2 receptor amounted to 100%. The inhibition constant (Ki) at human NK2 receptor is 1.5 nM.
